In PMC6328172, “5-HT2 receptor binding, functional activity and selectivity in N-benzyltryptamines” (PLoS ONE, 2019):
Where two headings read alike, the source gives them in different places.

Tests used:
human 5-HT2A receptor [1] = biological target: T1, human 5-HT2A receptor (Homo sapiens, UniProt P28223); assay: Ca2+ mobilization in CHO h5-HT2A cells; assay type: cell-based; conditions: for EC50: Ca2+ mobilization; for Selectivity 5-HT2A/2C (functional): from EC50 values, Table 2; for Emax: relative efficacy, % of response to 5-HT; for times less potent than its 5-methoxytryptamine analog, h5-HT2A functional assay: 3 vs 38, 5 vs 39
T1 construct: expressed in transfected cells; host or cells: CHO (CHO-5-HT2A cell line)
T1 sequence (P28223 whole entry): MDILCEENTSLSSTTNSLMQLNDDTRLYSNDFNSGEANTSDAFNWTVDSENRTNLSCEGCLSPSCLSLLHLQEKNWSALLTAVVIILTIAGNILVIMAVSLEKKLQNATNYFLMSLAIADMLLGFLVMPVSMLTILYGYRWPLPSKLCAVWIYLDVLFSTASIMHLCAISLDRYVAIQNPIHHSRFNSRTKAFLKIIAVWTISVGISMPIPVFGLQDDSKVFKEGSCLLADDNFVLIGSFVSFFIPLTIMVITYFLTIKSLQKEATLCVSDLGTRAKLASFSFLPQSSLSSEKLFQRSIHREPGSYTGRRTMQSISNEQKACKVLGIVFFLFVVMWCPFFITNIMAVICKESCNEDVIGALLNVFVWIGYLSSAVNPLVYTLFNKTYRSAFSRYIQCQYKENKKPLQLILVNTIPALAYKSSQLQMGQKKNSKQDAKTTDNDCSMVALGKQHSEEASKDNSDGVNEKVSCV

human 5-HT2B receptor = human 5-HT2B receptor (Homo sapiens, UniProt P41595); assay: Competition binding to the human 5-HT2B receptor ([3H]LSD, CHO-5-HT2B membranes)
Sequence of human 5-HT2B receptor (P41595 whole entry): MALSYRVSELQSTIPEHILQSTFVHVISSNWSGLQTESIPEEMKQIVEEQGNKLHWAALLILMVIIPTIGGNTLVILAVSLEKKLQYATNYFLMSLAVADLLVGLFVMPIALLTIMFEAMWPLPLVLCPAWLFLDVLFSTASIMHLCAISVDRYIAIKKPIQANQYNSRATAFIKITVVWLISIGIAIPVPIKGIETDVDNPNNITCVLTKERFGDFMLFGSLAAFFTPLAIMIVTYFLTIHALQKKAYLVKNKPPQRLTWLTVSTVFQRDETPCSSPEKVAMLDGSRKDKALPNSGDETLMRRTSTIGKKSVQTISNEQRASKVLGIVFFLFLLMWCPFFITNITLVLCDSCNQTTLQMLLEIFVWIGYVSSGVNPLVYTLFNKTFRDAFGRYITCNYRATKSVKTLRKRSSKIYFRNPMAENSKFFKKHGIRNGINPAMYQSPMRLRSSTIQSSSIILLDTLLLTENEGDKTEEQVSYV

human 5-HT2C receptor [2] = biological target: T2, human 5-HT2C receptor (Homo sapiens, UniProt P28335); assay: Ca2+ mobilization in HeLa h5-HT2C cells; assay type: cell-based; conditions: for EC50: Ca2+ mobilization, no unit in the table, nM, read-out: 5-HT2C EC50 (in parentheses) (converted); for Emax: HeLa, read-out: 5-HT2C % Emax; for Selectivity 5-HT2C/2A (functional, in parentheses): from EC50 values, Table 2
T2 construct: expressed in transfected cells; host or cells: HeLa (HeLa-5-HT2C cell line)
T2 sequence (P28335 33-458): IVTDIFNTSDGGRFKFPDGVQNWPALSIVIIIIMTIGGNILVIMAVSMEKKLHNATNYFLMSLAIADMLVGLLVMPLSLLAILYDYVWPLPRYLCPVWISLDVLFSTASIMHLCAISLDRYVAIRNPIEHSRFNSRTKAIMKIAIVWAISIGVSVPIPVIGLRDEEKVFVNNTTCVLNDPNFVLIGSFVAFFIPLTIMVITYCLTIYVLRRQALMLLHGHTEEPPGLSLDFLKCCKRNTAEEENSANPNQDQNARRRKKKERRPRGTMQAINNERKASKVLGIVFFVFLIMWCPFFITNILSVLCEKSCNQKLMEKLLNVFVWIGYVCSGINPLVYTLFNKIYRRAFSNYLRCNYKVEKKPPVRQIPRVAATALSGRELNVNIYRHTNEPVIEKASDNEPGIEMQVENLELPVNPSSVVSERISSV

human 5-HT2C receptor [3] = biological target: T2, human 5-HT2C receptor; assay: Competition binding to the human 5-HT2C receptor ([3H]mesulergine, HeLa-5-HT2C membranes); conditions: for Selectivity 5-HT2C/2A (binding, in parentheses): from Ki values, Table 1; for Ki: human receptor, [3H]mesulergine displacement, no unit in the table, nM, read-out: 5-HT2C Ki (in parentheses) (converted); for inhibition at 10 µM: values marked *
human 5-HT2A receptor [4] = biological target: T1, human 5-HT2A receptor; assay: Competition binding to the human 5-HT2A receptor ([3H]ketanserin, CHO-5-HT2A membranes); conditions: for Selectivity 5-HT2A/2C (binding): from Ki values, Table 1; for Ki: human receptor, [3H]ketanserin displacement, no unit in the table, nM, read-out: 5-HT2A Ki (in parentheses) (converted); for inhibition at 10 µM: values marked *
[5] = no unit in the table, nM, read-out: 5-HT2A EC50 (in parentheses) (converted)

| SMILES | EC50 (human 5-HT2A receptor [1]; [5]) [nM] | Selectivity 5-HT2A/2C (functional) (human 5-HT2A receptor [1]) | Emax (human 5-HT2A receptor [1]) [%] | Ki (human 5-HT2B receptor) [nM] | EC50 (human 5-HT2C receptor [2]) [nM] | Emax (human 5-HT2C receptor [2]) [%] | Selectivity 5-HT2C/2A (functional, in parentheses) (human 5-HT2C receptor [2]) | Selectivity 5-HT2C/2A (binding, in parentheses) (human 5-HT2C receptor [3]) | Ki (human 5-HT2C receptor [3]) [nM] | Selectivity 5-HT2A/2C (binding) (human 5-HT2A receptor [4]) | Ki (human 5-HT2A receptor [4]) [nM] | times less potent than its 5-methoxytryptamine analog, h5-HT2A functional assay (human 5-HT2A receptor [1]) | EC50 (human 5-HT2A receptor [1]; pEC50 ± SEM, read-out: 5-HT2A pEC50 (converted)) [nM] | inhibition at 10 µM (human 5-HT2A receptor [4]) [%] | inhibition at 10 µM (human 5-HT2C receptor [3]) [%] |
| --- | --- | --- | --- | --- | --- | --- | --- | --- | --- | --- | --- | --- | --- | --- | --- |
| c1ccc(CNCCc2c[nH]c3ccccc23)cc1 [Compound 1, N-Benzyl-[2-(1H-indol-3-yl)ethyl]amine] | 162 | 0.31 | 61.6 ± 5.17 | 100 | 50.1 | 121 ± 6.58 | 3.24 | 1.33 | 186 | 0.75 | 245 |  |  |  |  |
| Oc1ccccc1CNCCc1c[nH]c2ccccc12 [Compound 2, N-(2-Hydroxybenzyl)-[2-(1H-indol-3-yl)ethyl]amine] | 200 | 0.17 | 94.1 ± 4.59 | 67.6 | 33.9 | 85.8 ± 2.83 | 5.89 | 1.37 | 85.1 | 0.73 | 115 |  |  |  |  |
| COc1ccccc1CNCCc1c[nH]c2ccccc12 [Compound 3, N-(2-Methoxybenzyl)-[2-(1H-indol-3-yl)ethyl]amine] | 1550 | 0.023 | 63 ± 1.95 | 46.8 | 35.5 | 94.2 ± 3.75 | 43.7 | 0.39 | 224 | 2.56 | 89.1 | several hundred times less potent | 1550 |  |  |
| Cc1ccccc1CNCCc1c[nH]c2ccccc12 [Compound 4, N-(2-Methylbenzyl)-[2-(1H-indol-3-yl)ethyl]amine] | 2000 | 0.069 | 44.4 ± 2.79 | 339 | 138 | 107 ± 2.9 | 14.5 |  | 661 |  |  |  |  | 48 ± 1 |  |
| Clc1ccccc1CNCCc1c[nH]c2ccccc12 [Compound 5, N-(2-Chlorobenzyl)-[2-(1H-indol-3-yl)ethyl]amine] | 468 | 0.42 | 25.5 ± 1.16 | 23.4 | 195 | 87.1 ± 4.96 | 2.40 | 0.49 | 24.6 | 2.04 | 12 | ~40 times |  |  |  |
| Brc1ccccc1CNCCc1c[nH]c2ccccc12 [Compound 6, N-(2-Bromobenzyl)-[2-(1H-indol-3-yl)ethyl]amine] | 2240 | 0.10 | 29.3 ± 5.93 | 74.1 | 234 | 109 ± 5.2 | 9.55 | 0.57 | 339 | 1.74 | 195 |  |  |  |  |
| Oc1cccc(CNCCc2c[nH]c3ccccc23)c1 [Compound 7, N-(3-Hydroxybenzyl)-[2-(1H-indol-3-yl)ethyl]amine] | 56.2 | 0.12 | 52.8 ± 4.63 | 37.1 | 6.76 | 96.3 ± 4.02 | 8.32 | 2.8 | 25.7 | 0.36 | 75.9 |  |  |  |  |
| Cc1cccc(CNCCc2c[nH]c3ccccc23)c1 [Compound 8, N-(3-Methylbenzyl)-[2-(1H-indol-3-yl)ethyl]amine] | 61.7 | 0.48 | 33 ± 2.11 | 17 | 29.5 | 82.6 ± 2.11 | 2.09 | 0.20 | 74.1 | 5.10 | 14.4 |  |  |  |  |
| Oc1ccc(CNCCc2c[nH]c3ccccc23)cc1 [Compound 12, N-(4-Hydroxybenzyl)-[2-(1H-indol-3-yl)ethyl]amine] |  |  |  | 490 | 145 | 99.7 ± 2.81 |  | 0.92 | 1000 | 1.09 | 912 |  |  |  |  |
| COc1ccc(CNCCc2c[nH]c3ccccc23)cc1 [Compound 13, N-(4-Methoxybenzyl)-[2-(1H-indol-3-yl)ethyl]amine] | 45.7 |  | 108 ± 2.78 |  | 8.32 | 91.4 ± 2.03 |  |  | 355 |  | 457 |  |  |  |  |
| Cc1ccc(CNCCc2c[nH]c3ccccc23)cc1 [Compound 14, N-(4-Methylbenzyl)-[2-(1H-indol-3-yl)ethyl]amine] |  |  |  | 74.1 | 1200 | 100 ± 5.36 |  | 1.23 | 331 | 0.81 | 417 |  |  |  |  |
| O=[N+]([O-])c1ccc(CNCCc2c[nH]c3ccccc23)cc1 [Compound 18, N-(4-Nitrobenzyl)-[2-(1H-indol-3-yl)ethyl]amine] |  |  |  | 200 | 525 | 92 ± 8.69 |  | 1.85 | 1410 | 0.54 | 2630 |  |  |  |  |
| COc1cccc(CNCCc2c[nH]c3ccccc23)c1OC [Compound 20, N-(2,3-Dimethoxybenzyl)-[2-(1H-indol-3-yl)ethyl]amine] |  |  |  | 195 | 3630 | 117 ± 9.18 |  | 1.37 | 1120 | 0.73 | 1510 |  |  |  |  |
| Oc1ccc(Br)cc1CNCCc1c[nH]c2ccccc12 [Compound 26, N-(5-Bromo-2-hydroxybenzyl)-[2-(1H-indol-3-yl)ethyl]amine] |  |  |  |  | 708 | 108 ± 2.88 |  | 0.42 | 724 | 2.39 | 309 |  |  |  |  |
| O=[N+]([O-])c1ccc(O)c(CNCCc2c[nH]c3ccccc23)c1 [Compound 30, N-(5-Nitro-2-hydroxybenzyl)-[2-(1H-indol-3-yl)ethyl]amine] |  |  |  | 891 |  |  |  |  |  |  |  |  |  | 8 ± 4 | 31 ± 4 |
| COc1ccc(CNCCc2c[nH]c3ccccc23)c(OC)c1 [Compound 32, N-(2,4-Dimethoxybenzyl)-[2-(1H-indol-3-yl)ethyl]amine] |  |  |  | 234 | 240 | 117 ± 4.59 |  | 2.44 | 269 | 0.41 | 661 |  |  |  |  |
| Oc1c(Br)cc(Br)cc1CNCCc1c[nH]c2ccccc12 [Compound 35, N-(3,5-Dibromo-2-hydroxybenzyl)-[2-(1H-indol-3-yl)ethyl]amine] |  |  |  | 6030 |  |  |  |  |  |  |  |  |  | 12 ± 4 | 26 ± 4 |
| NCCc1c[nH]c2ccccc12 [Tryptamine] |  |  | 97.6 ± 2.34 | 110 | 1.17 | 108 ± 3.43 |  |  | 95.5 |  |  |  |  |  |  |
